The results in this text go back to ChEMBL document CHEMBL1156554, “Aminoquinazolines as TRPV1 antagonists: modulation of drug-like properties through the exploration of 2-position substitution” (Bioorg Med Chem Lett, 2008).

Series [1] in a line: Tmax in rat at 2.0 mg/kg, po dosed in 0.5% methylcellulose, 0.1% triacetin. The format is ADME, organism-based. Further details: dose 2 mg/kg, route oral. The conditions noted are these: in vivo.
Series [2] in a line: Cmax in rat at 2.0 mg/kg, po dosed in 0.5% methylcellulose, 0.1% triacetin. The format is ADME, organism-based. Further details: dose 2 mg/kg, route oral. The settings on record: in vivo.
Series [3] can be described thus: AUC (0 to infinity) in rat at 2.0 mg/kg, po dosed in 0.5% methylcellulose, 0.1% triacetin. The format is ADME, organism-based. Further details: time infinity, dose 2 mg/kg, route oral. The settings on record: in vivo.
Series [4] can be described thus: Dissociation constant, pKa of the compound. The format is physicochemical.
Series [5] in a line: Volume of distribution at steady state in rat at […], iv dosed in 50% PEG-400/water. The format is ADME, organism-based. Further details: dose 1.5 mg/kg, route intravenous. The settings on record: in vivo, read-out: Vdss.
Series [6] is described as follows: Clearance in rat at […], iv dosed in 50% PEG-400/water. The format is ADME, organism-based. Further details: dose 1.5 mg/kg, route intravenous. The conditions noted are these: in vivo.
Series [7] is described as follows: Chemical stability in 0.1 N HCl after 4 hrs. The format is physicochemical. The settings on record: read-out: Activity.
Series [8] has as its system Liver microsomes. In words: Metabolic stability in rat liver microsomes at 1 uM. The format is ADME, Microsome. (In general: Liver microsomes are vesicles of endoplasmic reticulum, rich in cytochrome P450 enzymes.)
Series [9] relates to Liver microsomes. In words: Metabolic stability in human liver microsomes at 1 uM. The format is ADME, Microsome.
Series [10] in a line: Bioavailability in rat at 2.0 mg/kg, po dosed in 0.5% methylcellulose, 0.1% triacetin. The format is ADME, organism-based. The settings on record: in vivo.
A short description of series [11]: Half life in rat at […], iv dosed in 50% PEG-400/water. The conditions noted are these: in vivo. The format is ADME, organism-based. Further details: dose 1.5 mg/kg, route intravenous.
Series [12] is described as follows: Cmax in rat at 2.0 mg/kg, po dosed in 2% D-alpha-tocopheryl polyethylene glycol 1000 succinate. The format is ADME, organism-based. The conditions noted are these: in vivo. Further details: dose 2 mg/kg, route oral.
Series [13] in a line: Tmax in rat at 2.0 mg/kg, po dosed in 2% D-alpha-tocopheryl polyethylene glycol 1000 succinate. Further details: dose 2 mg/kg, route oral. The format is ADME, organism-based. The conditions noted are these: in vivo.
Series [14] in a line: Tmax in rat at […], po dosed in 0.5% methylcellulose, 0.1% triacetin. The format is ADME, organism-based. Further details: dose 2.1 mg/kg, route oral. The settings on record: in vivo.
A short description of series [15]: Cmax in rat at […], po dosed in 0.5% methylcellulose, 0.1% triacetin. The format is ADME, organism-based. Further details: dose 2.1 mg/kg, route oral. The conditions noted are these: in vivo.
Series [16] is described as follows: Bioavailability in rat at […], po dosed in 0.5% methylcellulose, 0.1% triacetin. The format is ADME, organism-based. The settings on record: in vivo.
The nature of series [17]: AUC (0 to infinity) in rat at […], po dosed in 0.5% methylcellulose, 0.1% triacetin. Further details: time infinity, dose 2.1 mg/kg, route oral. The settings on record: in vivo. The format is ADME, organism-based.
Series [18] is described as follows: (§1) Bioavailability in rat at 2.0 mg/kg, po dosed in 2% D-alpha-tocopheryl polyethylene glycol 1000 succinate. The conditions noted are these: in vivo. The format is ADME, organism-based.
The nature of series [19]: AUC (0 to infinity) in rat at 2.0 mg/kg, po dosed in 2% D-alpha-tocopheryl polyethylene glycol 1000 succinate. More on the design: dose 2 mg/kg, route oral, time infinity. The settings on record: plasma. The format is ADME, organism-based.
Series [20] in a line: Clearance in rat at 1.0 mg/kg, iv dosed in 50% PEG-400/water. The format is ADME, organism-based. Further details: dose 1 mg/kg, route intravenous. The settings on record: in vivo.
A short description of series [21]: Half life in rat at 1.0 mg/kg, iv dosed in 50% PEG-400/water. The format is ADME, organism-based. More on the design: dose 1 mg/kg, route intravenous. The conditions noted are these: in vivo.
Series [22] in a line: Ratio of drug level in brain to plasma in rat at 3 mg/kg, po after 4 hrs. The format is ADME, organism-based. More on the design: dose 3 mg/kg, route oral.
Series [23] is described as follows: Volume of distribution at steady state in rat at 1.0 mg/kg, iv dosed in 50% PEG-400/water. The format is ADME, organism-based. Further details: dose 1 mg/kg, route intravenous. The conditions noted are these: in vivo, read-out: Vdss.
Series [24] in a line: Clearance in rat at 2.7 mg/kg, iv dosed in 50% PEG-400/water. The format is ADME, organism-based. The settings on record: in vivo. Further details: dose 2.7 mg/kg, route intravenous.
Series [25] is described as follows: Half life in rat at 2.7 mg/kg, iv dosed in 50% PEG-400/water. The format is ADME, organism-based. Further details: dose 2.7 mg/kg, route intravenous. The settings on record: in vivo.
Series [26] can be described thus: Volume of distribution at steady state in rat at 2.7 mg/kg, iv dosed in 50% PEG-400/water. The format is ADME, organism-based. Further details: dose 2.7 mg/kg, route intravenous. The conditions noted are these: in vivo, read-out: Vdss.
In series [27] the test system is Rattus norvegicus. Described as §1. The conditions noted are these: in vivo. The format is ADME, organism-based.

The term Tmax denotes the time from dosing to the highest level. By Cmax is commonly meant the maximum level reached in the sampled fluid or tissue. The AUC(0-inf) is the area under the concentration-time curve extrapolated to infinity. Low readings indicate less exposure, high ones more exposure. As to `C[C@@H]1CN(Cc2nc(Nc3ccc(C(F)(F)F)nc3)c3ccc(-c4ncccc4C(F)(F)F)cc3n2)C[C@H](C)O1`, in series [1], the Tmax was found to be 0.9 h. This compound also came in with a Cmax in [2] of 93 ng/mL. In [3], this compound came in with an AUC(0-inf) of 218 ng·h/mL.

The pKa is the negative logarithm of the acid dissociation constant. Low readings indicate a stronger acid or weaker base, high ones a weaker acid or stronger base. In series [4], `CC1CN(Cc2nc(Nc3ccc(C(F)(F)F)cc3)c3ccc(-c4ncccc4C(F)(F)F)cc3n2)CC(C)O1` (stereo not drawn) yielded a pKa of 7.51.

Consider `FC(F)(F)c1ccc(Nc2nc(CCCN3CCOCC3)nc3cc(-c4ncccc4C(F)(F)F)ccc23)cc1`, for which the pKa in series [4] stood at 7.86.

In general, clearance refers to the rate of elimination divided by the concentration. The low end stands for inefficient removal, the high end for efficient removal. What is called bioavailability is the share of a dose that reaches the circulation, judged against a reference dose that is usually intravenous. Low readings indicate little systemic uptake, high ones much systemic uptake. What is called half-life is the time needed for the level to fall by half in the phase considered. A high value points to slow loss. Turning to `FC(F)(F)c1ccc(Nc2ncnc3cc(-c4ncccc4C(F)(F)F)ccc23)nc1`, the Vd in series [5] came to 12 L/kg. Also, the Tmax in series [1] was 5.7 h. The compound also came in with a pKa in series [4] of 3.26. Also, in series [6], the clearance came out at 4.2 mL/min/kg. Besides, the remaining at 4 h in [7] turned out to be 57%. Further, the Stability result in [8] and in [9] was “Stable” each time. In series [2], this compound had a Cmax of 137 ng/mL. The compound further had a bioavailability in series [10] of 89%. Besides, the area under the curve AUC(0-inf) in series [3] turned out to be 7620 ng·h/mL. For the same compound, the half-life in [11] is 38 h.

Consider `CCOCc1nc(Nc2ccc(C(F)(F)F)nc2)c2ccc(-c3ncccc3C(F)(F)F)cc2n1`, for which the Stability result in [8] and in series [9] was “Stable” throughout.

Consider `CN1CCN(Cc2nc(Nc3ccc(C(F)(F)F)cc3)c3ccc(-c4ncccc4C(F)(F)F)cc3n2)CC1`, for which the pKa in series [4] was found to be 7.68.

Regarding `FC(F)(F)c1ccc(Nc2nc(CN3CCOCC3)nc3cc(-c4ncccc4C(F)(F)F)ccc23)nc1`, the Stability entry in series [8] and in series [9] was “Stable” in each case.

Consider `FC(F)(F)c1ccc(Nc2ncnc3cc(-c4ncccc4C(F)(F)F)ccc23)cn1`, for which the Cmax in [12] was determined as 211 ng/mL; in series [15] it was 137 ng/mL. The Tmax worked out at 1.7 h in series [13] and 1.8 h in series [14]. In series [5], the Vd is 5.5 L/kg. Also, the pKa in series [4] was 3.48. This compound yielded a clearance in series [6] of 22 mL/min/kg. The Stability result in series [8] and in series [9] was “Stable” in each case. For the same compound, the bioavailability in series [16] is 61%; in series [18], 94%. Besides, the AUC(0-inf) is 982 ng·h/mL in series [17] and 1450 ng·h/mL in series [19]. This compound gave a half-life in [11] of 4.2 h.

A word on the Kp: it is the ratio of the level in a tissue or fluid to that in plasma or blood. The compound `COCc1nc(Nc2ccc(C(F)(F)F)cc2)c2ccc(-c3ncccc3C(F)(F)F)cc2n1` came in with a clearance in series [20] of 5.3 mL/min/kg. In addition, the half-life in series [21] is 6.9 h. The Tmax in series [1] came to 3.7 h. This compound returned a pKa in series [4] of 3.7. Also, the Kp at 4 h in series [22] was 1.8. The compound further showed a Cmax in series [2] of 215 ng/mL. The compound also displayed a bioavailability in series [10] of 50%. The same compound came in with an AUC(0-inf) in [3] of 3250 ng·h/mL. Further, the Vd in series [23] was found to be 3.5 L/kg.

On to `CC(C)OCc1nc(Nc2ccc(C(F)(F)F)nc2)c2ccc(-c3ncccc3C(F)(F)F)cc2n1`, for which the Stability result in series [8] and in series [9] was “Stable” throughout.

On to `FC(F)(F)c1ccc(Nc2ncnc3cc(-c4ncccc4C(F)(F)F)ccc23)cc1` [NGD-8243], for which the Cmax amounted to 101 ng/mL in series [12] and 13 ng/mL in series [2]. The Tmax in [13] stood at 0.67 h; in [1], 3 h. For the same compound, the pKa in series [4] stood at 4.54. For the same compound, the clearance in series [24] turned out to be 23 mL/min/kg. In addition, in series [25], the half-life was 8 h. Further, the bioavailability in series [10] came out at 8%. Further, the AUC(0-inf) in series [3] amounted to 121 ng·h/mL; in [19] it was 1430 ng·h/mL. For the same compound, in series [26], the Vd worked out at 13 L/kg. In series [27], this compound gave an F of 99%.
